Experimental data taken from article PMC6403222, “Identification of a novel class of RIP1/RIP3 dual inhibitors that impede cell death and inflammation in mouse abdominal aortic aneurysm models” (Cell Death & Disease, 2019).

Tests used:
EPHB6 [1] = target: T1, EPHB6 (Homo sapiens, UniProt O15197); test: KINOMEscan competition binding, single concentration […]; settings: read-out: % of control at 100 nM
CSF1R [2] = target: T2, CSF1R (Homo sapiens, UniProt P07333); test: as above; settings: read-out: % of control at 100 nM
KIT [3] = target: T3, KIT (Homo sapiens, UniProt P10721); test: as above; settings: read-out: % of control at 100 nM
RIP1 [4] = target: T4, RIP1 (Homo sapiens, UniProt Q13546); test: KINOMEscan competition binding Kd; also ADP-Glo kinase inhibition
T4 construct: gene RIPK1; kinase domain

RIP3 = target: T5, RIP3 (Homo sapiens, UniProt Q9Y572); test: as above
T5 construct: gene RIPK3; kinase domain

MEK5 [5] = target: T6, MEK5 (Homo sapiens, UniProt Q13163); test: KINOMEscan competition binding, single concentration […]; settings: read-out: % of control at 100 nM
T6 construct: gene MAP2K5

[6] = target: T7, ABL1(E255K)-phosphorylated (Homo sapiens, UniProt P00519, E255K); test: biochemical; parameters: KINOMEscan competition binding assay (DiscoveRx), per cent of control at 100 nM; settings: competition binding, per cent of DMSO control; read-out: Percent Control
T7 construct: phosphorylated
Procedure: (§1) The selectivity of GSK’074 was evaluated using KINOMEscan™ profiling service (DiscoveRx Corporation, Fremont, CA). In brief, an in vitro competition binding assay was used to evaluate GSK’074 specificity at a concentration of 100 nM against 468 human kinases including 403 non-mutant kinases and 65 mutant kinases, as described previously[33],[50]. KINOMEscan™ was also used to determine binding constants (Kd) for GSK’074 against RIP1 and RIP3. In brief, an 11-point threefold serial dilution of GSK’074 was prepared in 100% DMSO at 100× final test concentration and subsequently diluted to 1× in the assay buffer. Kds were calculated with a standard dose-response curve using the Hill equation. Curves were fitted using a non-linear least square fit with the Levenberg–Marquardt algorithm. Next, we investigated the selectivity profile of GSK’074 against a panel of 468 kinases, including 403 non-mutant kinases using the KINOMEscan™ profiling service. […] KIT, MEK5, CSF1R, or EPHB6 had no established roles in cell death and their expression levels in SMCs, with the exception of MEK5, were negligible (Supplementary Figure 3).  Fig. 6 Selectivity profile of GSK’074. Binding of GSK’074 (100 nM) against 468 human kinases (403 non-mutant kinases, 65 mutant kinases) was assessed by DiscoveRx KINOMEscan™. a Selectivity scores of GSK’074. Selectivity score was defined as the number of non-mutant kinases bound to GSK’074 <35% of control (S(35)), 10% of control (S(10)), or 1% of control (S(1)). b TREEspot map of kinases potentially targeted by GSK’074.

[7] = target: T8, ABL1(H396P)-nonphosphorylated (Homo sapiens, UniProt P00519, H396P); test: biochemical; parameters: KINOMEscan competition binding assay (DiscoveRx), per cent of control at 100 nM; settings: competition binding, per cent of DMSO control; read-out: Percent Control
T8 construct: nonphosphorylated
Procedure: as §1

[8] = target: T9, ABL1(Q252H)-nonphosphorylated (Homo sapiens, UniProt P00519, Q252H); test: biochemical; parameters: KINOMEscan competition binding assay (DiscoveRx), per cent of control at 100 nM; settings: competition binding, per cent of DMSO control; read-out: Percent Control
T9 construct: nonphosphorylated
Procedure: as §1

[9] = target: T10, ABL1(T315I)-nonphosphorylated (Homo sapiens, UniProt P00519, T315I); test: biochemical; parameters: KINOMEscan competition binding assay (DiscoveRx), per cent of control at 100 nM; settings: competition binding, per cent of DMSO control; read-out: Percent Control
T10 construct: nonphosphorylated
Procedure: as §1

[10] = target: T11, ABL1(T315I)-phosphorylated (Homo sapiens, UniProt P00519, T315I); test: biochemical; parameters: KINOMEscan competition binding assay (DiscoveRx), per cent of control at 100 nM; settings: competition binding, per cent of DMSO control; read-out: Percent Control
T11 construct: phosphorylated
Procedure: as §1

ABL1-nonphosphorylated = target: T12, ABL1-nonphosphorylated (Homo sapiens, UniProt P00519); test: biochemical; parameters: KINOMEscan competition binding assay (DiscoveRx), per cent of control at 100 nM; settings: competition binding, per cent of DMSO control; read-out: Percent Control
T12 construct: nonphosphorylated
Procedure: as §1

ABL1-phosphorylated = target: T13, ABL1-phosphorylated (Homo sapiens, UniProt P00519); test: biochemical; parameters: KINOMEscan competition binding assay (DiscoveRx), per cent of control at 100 nM; settings: competition binding, per cent of DMSO control; read-out: Percent Control
T13 construct: phosphorylated
Procedure: as §1

AURKB = AURKB (Homo sapiens, UniProt Q96GD4); test: biochemical; parameters: KINOMEscan competition binding assay (DiscoveRx), per cent of control at 100 nM; settings: competition binding, per cent of DMSO control; read-out: Percent Control
Procedure: as §1

AURKC = AURKC (Homo sapiens, UniProt Q9UQB9); test: biochemical; parameters: KINOMEscan competition binding assay (DiscoveRx), per cent of control at 100 nM; settings: competition binding, per cent of DMSO control; read-out: Percent Control
Procedure: as §1

CSF1R [11] = target: T2, CSF1R; test: biochemical; parameters: KINOMEscan competition binding assay (DiscoveRx), per cent of control at 100 nM; settings: competition binding, per cent of DMSO control; read-out: Percent Control
Procedure: as §1

EPHB6 [12] = target: T1, EPHB6; test: biochemical; parameters: KINOMEscan competition binding assay (DiscoveRx), per cent of control at 100 nM; settings: competition binding, per cent of DMSO control; read-out: Percent Control
Procedure: as §1

FLT3 = FLT3 (Homo sapiens, UniProt P36888); test: biochemical; parameters: KINOMEscan competition binding assay (DiscoveRx), per cent of control at 100 nM; settings: competition binding, per cent of DMSO control; read-out: Percent Control
Procedure: as §1

FLT3(K663Q) = FLT3(K663Q) (Homo sapiens, UniProt P36888, K663Q); test: biochemical; parameters: KINOMEscan competition binding assay (DiscoveRx), per cent of control at 100 nM; settings: competition binding, per cent of DMSO control; read-out: Percent Control
Procedure: as §1

HPK1 = target: T14, HPK1 (Homo sapiens, UniProt Q92918); test: biochemical; parameters: KINOMEscan competition binding assay (DiscoveRx), per cent of control at 100 nM; settings: competition binding, per cent of DMSO control; read-out: Percent Control
T14 construct: gene MAP4K1
Procedure: as §1

KIT [13] = target: T3, KIT; test: biochemical; parameters: KINOMEscan competition binding assay (DiscoveRx), per cent of control at 100 nM; settings: competition binding, per cent of DMSO control; read-out: Percent Control
Procedure: as §1

KIT(L576P) = KIT(L576P) (Homo sapiens, UniProt P10721, L576P); test: biochemical; parameters: KINOMEscan competition binding assay (DiscoveRx), per cent of control at 100 nM; settings: competition binding, per cent of DMSO control; read-out: Percent Control
Procedure: as §1

KIT(V559D) = KIT(V559D) (Homo sapiens, UniProt P10721, V559D); test: biochemical; parameters: KINOMEscan competition binding assay (DiscoveRx), per cent of control at 100 nM; settings: competition binding, per cent of DMSO control; read-out: Percent Control
Procedure: as §1

LOK = target: T15, LOK (Homo sapiens, UniProt O94804); test: biochemical; parameters: KINOMEscan competition binding assay (DiscoveRx), per cent of control at 100 nM; settings: competition binding, per cent of DMSO control; read-out: Percent Control
T15 construct: gene STK10
Procedure: as §1

MAP4K5 = MAP4K5 (Homo sapiens, UniProt Q9Y4K4); test: biochemical; parameters: KINOMEscan competition binding assay (DiscoveRx), per cent of control at 100 nM; settings: competition binding, per cent of DMSO control; read-out: Percent Control
Procedure: as §1

MEK5 [14] = target: T6, MEK5; test: biochemical; parameters: KINOMEscan competition binding assay (DiscoveRx), per cent of control at 100 nM; settings: competition binding, per cent of DMSO control; read-out: Percent Control
Procedure: as §1

MST1 = target: T16, MST1 (Homo sapiens, UniProt Q13043); test: biochemical; parameters: KINOMEscan competition binding assay (DiscoveRx), per cent of control at 100 nM; settings: competition binding, per cent of DMSO control; read-out: Percent Control
T16 construct: gene STK4
Procedure: as §1

PDGFRA = PDGFRA (Homo sapiens, UniProt P16234); test: biochemical; parameters: KINOMEscan competition binding assay (DiscoveRx), per cent of control at 100 nM; settings: competition binding, per cent of DMSO control; read-out: Percent Control
Procedure: as §1

PDGFRB = PDGFRB (Homo sapiens, UniProt P09619); test: biochemical; parameters: KINOMEscan competition binding assay (DiscoveRx), per cent of control at 100 nM; settings: competition binding, per cent of DMSO control; read-out: Percent Control
Procedure: as §1

PRKD2 = PRKD2 (Homo sapiens, UniProt Q9BZL6); test: biochemical; parameters: KINOMEscan competition binding assay (DiscoveRx), per cent of control at 100 nM; settings: competition binding, per cent of DMSO control; read-out: Percent Control
Procedure: as §1

RIP1 [15] = target: T4, RIP1; test: biochemical; parameters: KINOMEscan competition binding assay (DiscoveRx), per cent of control at 100 nM; settings: competition binding, per cent of DMSO control; read-out: Percent Control
Procedure: as §1

RIPK2 = RIPK2 (Homo sapiens, UniProt O43353); test: biochemical; parameters: KINOMEscan competition binding assay (DiscoveRx), per cent of control at 100 nM; settings: competition binding, per cent of DMSO control; read-out: Percent Control
Procedure: as §1

T1 sequence (O15197 32-1021): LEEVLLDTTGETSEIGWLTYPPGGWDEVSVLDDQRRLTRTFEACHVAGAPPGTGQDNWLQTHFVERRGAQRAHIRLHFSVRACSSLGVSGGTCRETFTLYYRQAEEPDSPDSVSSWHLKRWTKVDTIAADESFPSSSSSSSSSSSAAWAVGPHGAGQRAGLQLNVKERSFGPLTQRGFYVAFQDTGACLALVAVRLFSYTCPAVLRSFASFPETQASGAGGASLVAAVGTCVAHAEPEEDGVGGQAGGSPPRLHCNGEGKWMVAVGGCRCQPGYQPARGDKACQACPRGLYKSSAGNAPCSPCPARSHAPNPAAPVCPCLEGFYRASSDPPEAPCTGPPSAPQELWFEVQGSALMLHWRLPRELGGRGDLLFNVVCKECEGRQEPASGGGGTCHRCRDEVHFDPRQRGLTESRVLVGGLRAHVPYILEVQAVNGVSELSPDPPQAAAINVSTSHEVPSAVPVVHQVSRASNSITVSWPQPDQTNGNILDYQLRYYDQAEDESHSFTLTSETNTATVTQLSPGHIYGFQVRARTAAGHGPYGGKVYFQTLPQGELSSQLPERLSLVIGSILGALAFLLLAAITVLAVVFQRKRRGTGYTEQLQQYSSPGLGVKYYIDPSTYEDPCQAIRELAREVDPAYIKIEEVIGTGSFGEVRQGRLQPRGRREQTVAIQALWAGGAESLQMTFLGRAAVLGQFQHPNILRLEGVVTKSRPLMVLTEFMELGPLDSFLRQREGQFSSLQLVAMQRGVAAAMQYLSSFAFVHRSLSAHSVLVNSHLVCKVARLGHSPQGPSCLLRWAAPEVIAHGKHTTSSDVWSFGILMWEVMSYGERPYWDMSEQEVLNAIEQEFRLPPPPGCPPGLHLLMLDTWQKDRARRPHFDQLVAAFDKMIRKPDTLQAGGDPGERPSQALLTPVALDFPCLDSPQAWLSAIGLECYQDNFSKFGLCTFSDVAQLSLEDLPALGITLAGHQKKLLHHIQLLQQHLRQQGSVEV
T3 sequence (P10721 26-976): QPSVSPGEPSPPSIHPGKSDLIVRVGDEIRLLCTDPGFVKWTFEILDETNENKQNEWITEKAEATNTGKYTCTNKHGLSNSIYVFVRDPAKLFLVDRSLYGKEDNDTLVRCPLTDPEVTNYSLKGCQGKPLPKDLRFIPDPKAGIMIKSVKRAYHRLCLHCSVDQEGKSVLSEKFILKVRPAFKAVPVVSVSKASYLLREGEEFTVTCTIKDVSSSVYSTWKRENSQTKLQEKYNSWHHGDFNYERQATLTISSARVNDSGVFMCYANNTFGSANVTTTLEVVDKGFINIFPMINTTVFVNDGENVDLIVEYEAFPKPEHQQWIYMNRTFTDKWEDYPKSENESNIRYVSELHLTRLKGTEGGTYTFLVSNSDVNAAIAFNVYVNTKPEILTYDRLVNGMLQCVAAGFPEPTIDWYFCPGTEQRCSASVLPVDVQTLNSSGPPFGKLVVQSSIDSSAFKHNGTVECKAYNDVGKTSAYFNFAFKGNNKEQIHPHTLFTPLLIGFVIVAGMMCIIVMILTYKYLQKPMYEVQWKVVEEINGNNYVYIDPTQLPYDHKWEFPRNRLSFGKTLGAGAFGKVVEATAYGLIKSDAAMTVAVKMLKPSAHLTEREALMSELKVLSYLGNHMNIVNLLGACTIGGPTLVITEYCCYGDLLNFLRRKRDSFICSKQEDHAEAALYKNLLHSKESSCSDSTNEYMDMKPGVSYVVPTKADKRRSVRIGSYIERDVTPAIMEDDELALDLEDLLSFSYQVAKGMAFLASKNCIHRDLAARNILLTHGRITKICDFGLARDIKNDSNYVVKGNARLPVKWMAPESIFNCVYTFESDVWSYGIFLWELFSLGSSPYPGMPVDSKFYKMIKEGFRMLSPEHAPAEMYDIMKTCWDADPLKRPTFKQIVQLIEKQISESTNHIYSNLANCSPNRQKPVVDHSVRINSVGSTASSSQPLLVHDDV
T6 sequence (Q13163 whole entry): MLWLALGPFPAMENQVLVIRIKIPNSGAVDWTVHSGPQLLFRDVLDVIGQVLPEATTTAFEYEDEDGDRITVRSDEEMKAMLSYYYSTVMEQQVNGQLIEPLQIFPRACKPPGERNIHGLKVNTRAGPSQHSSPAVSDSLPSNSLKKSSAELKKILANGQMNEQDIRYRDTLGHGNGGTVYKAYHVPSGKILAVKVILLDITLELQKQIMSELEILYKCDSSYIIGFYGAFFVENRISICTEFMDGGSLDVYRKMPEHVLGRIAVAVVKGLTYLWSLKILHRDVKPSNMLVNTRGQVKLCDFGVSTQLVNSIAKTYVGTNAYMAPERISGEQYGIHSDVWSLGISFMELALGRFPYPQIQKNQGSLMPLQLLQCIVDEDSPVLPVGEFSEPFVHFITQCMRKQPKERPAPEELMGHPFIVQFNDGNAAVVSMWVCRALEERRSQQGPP
T4 sequence (Q13546 1-294 limits assumed): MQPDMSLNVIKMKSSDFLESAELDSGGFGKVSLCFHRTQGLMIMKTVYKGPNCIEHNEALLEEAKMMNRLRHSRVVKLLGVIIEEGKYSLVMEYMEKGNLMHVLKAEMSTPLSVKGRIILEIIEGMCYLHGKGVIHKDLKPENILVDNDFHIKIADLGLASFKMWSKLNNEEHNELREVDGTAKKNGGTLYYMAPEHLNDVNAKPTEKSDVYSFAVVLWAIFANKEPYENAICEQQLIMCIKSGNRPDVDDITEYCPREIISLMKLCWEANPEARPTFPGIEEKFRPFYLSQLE
T2 sequence (P07333 20-972): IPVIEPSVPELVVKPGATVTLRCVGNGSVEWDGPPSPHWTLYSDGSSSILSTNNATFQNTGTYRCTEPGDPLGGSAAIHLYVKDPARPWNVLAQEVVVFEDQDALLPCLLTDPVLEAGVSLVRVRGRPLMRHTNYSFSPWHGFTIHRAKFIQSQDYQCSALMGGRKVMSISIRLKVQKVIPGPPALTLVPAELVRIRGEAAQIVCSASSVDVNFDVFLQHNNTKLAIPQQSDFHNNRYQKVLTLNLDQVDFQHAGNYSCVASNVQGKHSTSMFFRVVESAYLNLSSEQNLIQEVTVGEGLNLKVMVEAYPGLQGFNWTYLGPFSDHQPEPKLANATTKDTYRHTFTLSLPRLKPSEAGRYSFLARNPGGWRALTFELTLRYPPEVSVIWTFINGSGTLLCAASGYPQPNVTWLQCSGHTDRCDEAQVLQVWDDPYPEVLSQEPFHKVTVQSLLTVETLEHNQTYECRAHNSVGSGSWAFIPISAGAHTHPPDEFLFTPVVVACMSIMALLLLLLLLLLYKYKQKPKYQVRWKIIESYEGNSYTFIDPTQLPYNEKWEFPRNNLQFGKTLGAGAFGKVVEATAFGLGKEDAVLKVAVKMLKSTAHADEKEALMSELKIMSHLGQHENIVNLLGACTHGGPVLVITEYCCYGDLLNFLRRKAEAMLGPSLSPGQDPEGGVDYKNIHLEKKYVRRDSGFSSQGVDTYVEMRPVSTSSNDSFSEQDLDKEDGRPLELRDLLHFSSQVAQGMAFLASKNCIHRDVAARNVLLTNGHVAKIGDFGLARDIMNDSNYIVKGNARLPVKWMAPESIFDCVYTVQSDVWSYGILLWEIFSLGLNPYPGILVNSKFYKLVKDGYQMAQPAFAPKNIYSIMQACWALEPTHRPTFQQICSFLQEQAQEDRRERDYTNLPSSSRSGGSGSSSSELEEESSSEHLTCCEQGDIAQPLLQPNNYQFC
Chain of PDGFRB (P09619 whole entry): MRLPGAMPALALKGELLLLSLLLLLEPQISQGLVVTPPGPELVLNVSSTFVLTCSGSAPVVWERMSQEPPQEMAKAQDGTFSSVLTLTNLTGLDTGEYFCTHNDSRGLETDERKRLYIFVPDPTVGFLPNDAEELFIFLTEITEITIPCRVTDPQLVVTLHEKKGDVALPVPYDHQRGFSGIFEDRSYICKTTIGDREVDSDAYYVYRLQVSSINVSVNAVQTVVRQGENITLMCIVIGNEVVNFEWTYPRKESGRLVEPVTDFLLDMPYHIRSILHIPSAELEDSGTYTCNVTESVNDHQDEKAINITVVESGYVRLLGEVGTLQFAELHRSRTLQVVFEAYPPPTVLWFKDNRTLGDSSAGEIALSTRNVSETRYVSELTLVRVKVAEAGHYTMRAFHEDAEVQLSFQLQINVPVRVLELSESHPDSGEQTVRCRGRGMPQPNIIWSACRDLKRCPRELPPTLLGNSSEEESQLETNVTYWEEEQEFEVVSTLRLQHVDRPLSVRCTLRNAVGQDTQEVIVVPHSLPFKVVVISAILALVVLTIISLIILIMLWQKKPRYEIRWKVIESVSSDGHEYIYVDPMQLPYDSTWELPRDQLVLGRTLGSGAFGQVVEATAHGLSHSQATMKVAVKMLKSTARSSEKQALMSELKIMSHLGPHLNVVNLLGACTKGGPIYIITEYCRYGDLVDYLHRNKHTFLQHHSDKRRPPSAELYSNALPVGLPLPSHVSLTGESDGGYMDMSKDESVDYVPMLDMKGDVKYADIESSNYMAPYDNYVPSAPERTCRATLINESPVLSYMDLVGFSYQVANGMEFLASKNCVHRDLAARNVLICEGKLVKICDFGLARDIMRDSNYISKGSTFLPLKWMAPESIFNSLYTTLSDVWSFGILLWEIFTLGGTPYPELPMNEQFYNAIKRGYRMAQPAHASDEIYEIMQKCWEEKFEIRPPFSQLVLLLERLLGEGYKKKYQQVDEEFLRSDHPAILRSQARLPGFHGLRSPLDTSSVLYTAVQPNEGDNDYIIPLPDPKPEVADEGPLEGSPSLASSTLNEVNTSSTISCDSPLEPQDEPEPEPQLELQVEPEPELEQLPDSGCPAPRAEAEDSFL
Chain of AURKC (Q9UQB9 whole entry): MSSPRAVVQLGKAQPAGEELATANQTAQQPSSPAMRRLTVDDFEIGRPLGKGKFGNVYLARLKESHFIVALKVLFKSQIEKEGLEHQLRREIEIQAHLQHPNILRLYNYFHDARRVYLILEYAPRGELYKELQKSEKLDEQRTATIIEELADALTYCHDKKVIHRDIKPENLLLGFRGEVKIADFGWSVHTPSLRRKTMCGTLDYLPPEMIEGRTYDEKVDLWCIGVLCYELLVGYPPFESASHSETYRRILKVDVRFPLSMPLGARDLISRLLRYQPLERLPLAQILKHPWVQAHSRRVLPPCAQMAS

## Cn1cc(-c2cnc(N)c3c(-c4ccc5c(c4)CCN5C(=O)Cc4ccccc4)csc23)cn1 [GSK'074, GSK2593074A]
EPHB6 [1]
  remaining binding at 0.1 µM: < 1%
CSF1R [2]
  remaining binding at 0.1 µM: < 1%
KIT [3]
  remaining binding at 0.1 µM: < 1%
RIP1 [4]
  Kd: 12 nM
RIP3
  Kd: 130 nM
MEK5 [5]
  remaining binding at 0.1 µM: < 1%
[6]
  remaining binding at 0.1 µM: 24%
[7]
  remaining binding at 0.1 µM: 2.2%
[8]
  remaining binding at 0.1 µM: 6.1%
[9]
  remaining binding at 0.1 µM: 0.3%
[10]
  remaining binding at 0.1 µM: 19%
ABL1-nonphosphorylated
  remaining binding at 0.1 µM: 3.3%
ABL1-phosphorylated
  remaining binding at 0.1 µM: 25%
AURKB
  remaining binding at 0.1 µM: 9.3%
AURKC
  remaining binding at 0.1 µM: 19%
CSF1R [11]
  remaining binding at 0.1 µM: 0.5%
EPHB6 [12]
  remaining binding at 0.1 µM: 0.5%
FLT3
  remaining binding at 0.1 µM: 19%
FLT3(K663Q)
  remaining binding at 0.1 µM: 30%
HPK1
  remaining binding at 0.1 µM: 30%
KIT [13]
  remaining binding at 0.1 µM: 0.35%
KIT(L576P)
  remaining binding at 0.1 µM: 0%
KIT(V559D)
  remaining binding at 0.1 µM: 0.05%
LOK
  remaining binding at 0.1 µM: 30%
MAP4K5
  remaining binding at 0.1 µM: 5.5%
MEK5 [14]
  remaining binding at 0.1 µM: 0.1%
MST1
  remaining binding at 0.1 µM: 13%
PDGFRA
  remaining binding at 0.1 µM: 13%
PDGFRB
  remaining binding at 0.1 µM: 1.3%
PRKD2
  remaining binding at 0.1 µM: 32%
RIP1 [15]
  remaining binding at 0.1 µM: 0%
RIPK2
  remaining binding at 0.1 µM: 12%
